Data published in patent US9409905B2, “Antibacterial compounds and methods for use” (PTC THERAPEUTICS, INC., priority 2011, dated 2016).
≈ marks a conversion by molar mass, not a printed value.

Tests used:
[1] = test system: Staphylococcus aureus (S. aureus) 29213; assay: Antibacterial activity, microbroth dilution MIC (Table 1); format: cell-based; conditions: microbroth dilution, Gram-positive S. aureus 29213, read-out: MIC, 29213
Procedure, shortened: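 Lowest concentration stopping macroscopically visible growth under test conditions, by broth microdilution, defines the MIC (μg/mL).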

[2] = test system: Escherichia coli (E. coli) BAS849; assay: as above; format: cell-based; conditions: microbroth dilution, super sensitive Gram-negative E. coli BAS849, read-out: MIC, BAS849
Procedure, shortened: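 MIC (μg/mL) is taken as the lowest concentration with no macroscopically visible growth. Strains tested by microbroth dilution: Gram-positive S. aureus 29213, control Gram-negative E. coli 25922, and super-sensitive E. coli BAS849.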

[3] = test system: E. coli 25922; assay: as above; format: cell-based, Escherichia coli; conditions: Escherichia coli; microbroth dilution; control Gram-negative E. coli 25922 strain; read-out: MIC, 25922
Procedure, shortened: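 Values are MICs (μg/mL): the smallest drug amount at which macroscopically visible bacterial growth is absent under assay conditions, from a microdilution method in broth.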

[4] = test system: E. coli LZ3111; assay: Antibacterial activity, MIC, quinolone resistant strain (Table 2); format: cell-based; conditions: Escherichia coli, LZ3111, read-out: MIC LZ3111
Procedure, shortened: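 Broth microdilution. Read-out: MIC in μg/mL, taken as lowest concentration with no macroscopically visible growth.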

Row | Compound | MIC [1] [µg/mL] | MIC [2] [µg/mL] | MIC [3] [µg/mL] | MIC [4] [µg/mL]
1 | CC(C)c1c(-c2ccc3c(c2)cc(CN2CCCC2)n3C)[nH]c(=O)c(C(=O)O)c1O [Cpd 319, 4-hydroxy-5-isopropyl-6-(1-methyl-2-(pyrrolidin-1-ylmethyl)-1H-indol-5-yl)-2-oxo-1,2-dihydropyridine-3-carboxylic acid] | 3.5 to 12.5 (≈ 8.55 to 30.5 µM) | < 1 | 1 to 3.5 (≈ 2.44 to 8.55 µM) | 12.5 to 150 (≈ 30.5 to 366 µM)
2 | CC(C)c1c(-c2ccc3c(c2)cc(CN2CCC2)n3C)[nH]c(=O)c(C(=O)O)c1O [Cpd 320, 6-(2-(azetidin-1-ylmethyl)-1-methyl-1H-indol-5-yl)-4-hydroxy-5-isopropyl-2-oxo-1,2-dihydropyridine-3-carboxylic acid] | 3.5 to 12.5 (≈ 8.85 to 31.6 µM) | < 1 | 1 to 3.5 (≈ 2.53 to 8.85 µM) | 12.5 to 150 (≈ 31.6 to 379 µM)
3 | CC(C)c1c(-c2ccc3c(c2)cc(CNCC2CC2)n3C)[nH]c(=O)c(C(=O)O)c1O [Cpd 321, 6-(2-((cyclopropylmethylamino)methyl)-1-methyl-1H-indol-5-yl)-4-hydroxy-5-isopropyl-2-oxo-1,2-dihydropyridine-3-carboxylic acid] | 3.5 to 12.5 (≈ 8.55 to 30.5 µM) | < 1 | 1 to 3.5 (≈ 2.44 to 8.55 µM) | 12.5 to 150 (≈ 30.5 to 366 µM)
4 | CN(C)Cc1cc2cc(-c3cc(O)c(C(=O)O)c(=O)[nH]3)ccc2n1C [Cpd 326, 6-(2-((dimethylamino)methyl)-1-methyl-1H-indol-5-yl)-4-hydroxy-2-oxo-1,2-dihydropyridine-3-carboxylic acid] | 12.5 to 150 (≈ 36.6 to 439 µM) | 12.5 to 150 (≈ 36.6 to 439 µM) | 12.5 to 150 (≈ 36.6 to 439 µM) | 12.5 to 150 (≈ 36.6 to 439 µM)
5 | Cn1c(CN2CCCC2)cc2cc(-c3cc(O)c(C(=O)O)c(=O)[nH]3)ccc21 [Cpd 327, 4-hydroxy-6-(1-methyl-2-(pyrrolidin-1-ylmethyl)-1H-indol-5-yl)-2-oxo-1,2-dihydropyridine-3-carboxylic acid] | 12.5 to 150 (≈ 34 to 408 µM) | 3.5 to 12.5 (≈ 9.53 to 34 µM) | 12.5 to 150 (≈ 34 to 408 µM) | 12.5 to 150 (≈ 34 to 408 µM)
6 | CCc1c(-c2ccc3c(c2)cc(CN2CCCC2)n3C)[nH]c(=O)c(C(=O)O)c1N [Cpd 329, 4-amino-5-ethyl-6-(1-methyl-2-(pyrrolidin-1-ylmethyl)-1H-indol-5-yl)-2-oxo-1,2-dihydropyridine-3-carboxylic acid] | 12.5 to 150 (≈ 31.7 to 380 µM) | < 1 | 3.5 to 12.5 (≈ 8.87 to 31.7 µM) | 12.5 to 150 (≈ 31.7 to 380 µM)
7 | CCc1c(-c2ccc3c(c2)cc(CN(C)C)n3C)[nH]c(=O)c(C(=O)O)c1N [Cpd 330, 4-amino-6-(2-((dimethylamino)methyl)-1-methyl-1H-indol-5-yl)-5-ethyl-2-oxo-1,2-dihydropyridine-3-carboxylic acid] | 12.5 to 150 (≈ 33.9 to 407 µM) | < 1 | 3.5 to 12.5 (≈ 9.5 to 33.9 µM) | 12.5 to 150 (≈ 33.9 to 407 µM)
8 | CCc1c(-c2ccc3c(c2)cc(CN2CCC(N(C)C)C2)n3C)[nH]c(=O)c(C(=O)O)c1N (stereo not drawn) [Cpd 332, 4-amino-6-(2-((3-(dimethylamino)pyrrolidin-1-yl)methyl)-1-methyl-1H-indol-5-yl)-5-ethyl-2-oxo-1,2-dihydropyridine-3-carboxylic acid] | 12.5 to 150 (≈ 28.6 to 343 µM) | 3.5 to 12.5 (≈ 8 to 28.6 µM) | 12.5 to 150 (≈ 28.6 to 343 µM) | 12.5 to 150 (≈ 28.6 to 343 µM)
9 | CCc1c(-c2ccc3c(c2)c(C#N)cn3C)[nH]c(=O)c(C(=O)O)c1O [Cpd 359, 6-(3-cyano-1-methyl-1H-indol-5-yl)-5-ethyl-4-hydroxy-2-oxo-1,2-dihydropyridine-3-carboxylic acid] | 12.5 to 150 (≈ 37.1 to 445 µM) | 3.5 to 12.5 (≈ 10.4 to 37.1 µM) | 12.5 to 150 (≈ 37.1 to 445 µM) | 1 to 3.5 (≈ 2.96 to 10.4 µM)
10 | CCc1c(-c2ccc3c(c2)c(C#N)c(N2CCCC2)n3C)[nH]c(=O)c(C(=O)O)c1O [Cpd 360, 6-(3-cyano-1-methyl-2-(pyrrolidin-1-yl)-1H-indol-5-yl)-5-ethyl-4-hydroxy-2-oxo-1,2-dihydropyridine-3-carboxylic acid] | 1 to 3.5 (≈ 2.46 to 8.61 µM) | 3.5 to 12.5 (≈ 8.61 to 30.8 µM) | 12.5 to 150 (≈ 30.8 to 369 µM) | 12.5 to 150 (≈ 30.8 to 369 µM)
11 | CCc1c(-c2ccc3c(c2)c(C#N)c(N(C)C)n3C)[nH]c(=O)c(C(=O)O)c1O [Cpd 361, 6-(3-cyano-2-(dimethylamino)-1-methyl-1H-indol-5-yl)-5-ethyl-4-hydroxy-2-oxo-1,2-dihydropyridine-3-carboxylic acid] | 3.5 to 12.5 (≈ 9.2 to 32.9 µM) | 1 to 3.5 (≈ 2.63 to 9.2 µM) | 12.5 to 150 (≈ 32.9 to 394 µM) | 12.5 to 150 (≈ 32.9 to 394 µM)
12 | CCc1c(-c2ccc3c(c2)c(Cl)cn3C)[nH]c(=O)c(C(=O)O)c1O [Cpd 363, 6-(3-chloro-1-methyl-1H-indol-5-yl)-5-ethyl-4-hydroxy-2-oxo-1,2-dihydropyridine-3-carboxylic acid] | 1 to 3.5 (≈ 2.88 to 10.1 µM) | < 1 | 12.5 to 150 (≈ 36 to 433 µM) | 1 to 3.5 (≈ 2.88 to 10.1 µM)
